The target in one experiment is T1, KPNA4 ARM Major (Homo sapiens, UniProt O00629).
T1 construct: 60-487; GST (cleaved yes); made in house; host or cells: Escherichia coli BL21-Gold(DE3)
The experiment is described as follows: FP displacement assay, KPNA4 ARM major pocket. The experiment is classed as binding. The following applies: for Kd: major pocket probe FITC-MYC 5 nM, 50 mM sodium phosphate pH 7.4, room temperature, at least three technical replicates, read-out: KD values ± SEM. As to the method: (§1) FP experiments were performed as described previously (Kliche et al, [2021]). Shortly, in order to monitor the binding event, FITC‐labelled peptides were used (excitation 495 nm, emission: 535 nm) and the FP signal was recorded in mP on a SpectraMax iD5 Multi‐Mode Microplate Reader (Molecular Devices) by measuring the emitted light in two angels. The measurements were performed at room temperature and prepared in nonbinding black half area 96‐well microplates (Corning®; 50 μl/well). For measuring direct binding, that is saturation curves, a 1:1 dilution series of protein domain (25 μl/well) was generated in 50 mM sodium phosphate buffer pH 7.4 and the measurement performed with 5 nM FITC‐labelled peptide (25 μl/well). The buffer‐corrected values were subsequently plotted with PRISM and fitted to the quadratic equation (Gianni et al, [2005]).
(§2) The 1:1 dilution series in this experiment was performed with the unlabelled peptide in 50 mM sodium phosphate buffer pH 7.4, so that each well‐contained unlabelled peptide (25 μl) at a certain concentration and pre‐formed complex (25 μl). The KD values of this indirectly monitored binding event were calculated as described previously (Nikolovska‐Coleska et al, [2004]). All measurements were at least in technical triplicates as well as biological duplicates when indicated. An amplitude shift between repeat measurements in the displacement experiments was occasionally observed due to variations in the protein preparations. If that was the case, the “active” protein concentration was back‐calculated according to the quadratic equation from the saturation curves performed in parallel. By comparing the active protein concentrations in the complex between different protein preparations, the amplitude was normalised.

A further experiment has as its target T2, KPNA4 ARM minor (Homo sapiens, UniProt O00629).
T2 construct: 60-487; GST (cleaved yes); made in house; host or cells: Escherichia coli BL21-Gold(DE3)
The experiment can be described thus: FP displacement assay, KPNA4 ARM minor pocket. The experiment is classed as binding. The following applies: for Kd: minor pocket probe FITC-NCOR2 5 nM, 50 mM sodium phosphate pH 7.4, room temperature, at least three technical replicates, read-out: KD values ± SEM. As to the method: as §1, §2

For a further experiment, the system named is KPNA4 ARM. The experiment is described as follows: Phosphomimetic ProP-PD selection, KPNA4 ARM. In kind it is binding, human. The following applies: phosphomimetic enrichment score of the wild-type/phosphomimetic (E) pair at the phosphosite, PM_HD2 phage selection; same score in the major and minor pocket; P-value in brackets not taken.
The target in experiment [1] is T3, GGA1 VHS (Homo sapiens, UniProt Q9UJY5).
T3 construct: GGA1_VHS__Q9UJY5_1_157; GST (cleaved yes); made in house; host or cells: Escherichia coli BL21-Gold(DE3)
T3 sequence (Q9UJY5 1-157): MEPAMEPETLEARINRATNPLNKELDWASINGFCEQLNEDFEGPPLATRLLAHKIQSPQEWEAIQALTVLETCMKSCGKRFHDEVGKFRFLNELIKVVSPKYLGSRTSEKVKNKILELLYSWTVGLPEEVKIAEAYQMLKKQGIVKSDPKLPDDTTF
The experiment can be described thus: FP displacement assay, GGA1 VHS. In kind it is binding. The conditions noted are these: FP displacement, probe FITC-IGF2R 5 nM, 50 mM sodium phosphate pH 7.4, room temperature; at least three technical replicates; read-out: KD values ± SEM. As to the method: as §1, §2

Experiment [2] has as its target T3, GGA1 VHS. The experiment can be described thus: Phosphomimetic ProP-PD selection, GGA1 VHS. The following applies: phosphomimetic enrichment score of the wild-type/phosphomimetic (E) pair at the phosphosite, PM_HD2 phage selection; positive = phosphomimetic enhances binding; P-value in brackets not taken. As to the method:
Selections using the PM_HD2 phage library were performed as described previously with minor modification to the original protocol. The corresponding tag protein (either GST or MBP) was first used during negative selections. Selections were run for 4 days. • Bait and tag proteins (10–15 μg in 100 μl PBS) were immobilised in 96‐well MaxiSorb plate (NUNC) o.n. at 4°C. • Escherichia coli OmniMax bacteria were grown in 2YT medium supplemented with tetracycline (100 μg/ml) at 37°C and 200 rpm. • Plates with immobilised bait/tag proteins were blocked with 0.5% BSA in PBS for 1 h at 4°C. • Phage library (10 μl/well) was prepared by diluting 10× with PBS and adding one‐fourth of the volume of PEG/NaCl. For phage precipitation, prepared library was incubated for 10 min on ice followed by centrifugation for 10 min at 10,000 × g at 4°C. […]
Based on the results from phage pool ELISAs, samples from selection Day 3 and 4 were selected for NGS, as described previously (Benz et al, [2022]). • Peptide coding regions were amplified and dual‐barcoded by PCR. […] From the columns, samples were eluted with 30 μl TE (10 mM Tris–HCl, 1 mM EDTA. pH 7.5) buffer and quantified with Quant‐iT PicoGreen dsDNA Assay Kit. • Samples were sequenced on MiSeq (MSC 2.5.0.5/RTA 1.18.54) with a 151 nt (Read1) setup using “Version3” chemistry. […]

In experiment [3] the target is T4, Clathrin NTD (Homo sapiens, UniProt Q00610).
T4 construct: GST (cleaved yes); made in house; host or cells: Escherichia coli BL21-Gold(DE3)
T4 sequence (Q00610 1-364): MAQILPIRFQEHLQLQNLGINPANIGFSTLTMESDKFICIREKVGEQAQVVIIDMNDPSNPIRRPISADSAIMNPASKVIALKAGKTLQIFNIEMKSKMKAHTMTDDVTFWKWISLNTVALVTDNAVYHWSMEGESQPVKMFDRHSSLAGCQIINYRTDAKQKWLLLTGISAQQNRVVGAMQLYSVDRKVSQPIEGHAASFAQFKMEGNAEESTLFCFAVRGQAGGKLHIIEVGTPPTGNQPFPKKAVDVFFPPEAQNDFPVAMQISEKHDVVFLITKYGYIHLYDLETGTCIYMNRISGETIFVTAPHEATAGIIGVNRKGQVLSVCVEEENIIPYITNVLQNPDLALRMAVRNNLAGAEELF
The experiment can be described thus: FP displacement assay, clathrin NTD. In kind it is binding. As to the method: as §1, §2

For experiment [4], the target named is T4, Clathrin NTD. The experiment can be described thus: ITC, clathrin NTD. The experiment is classed as binding. The following applies: ITC (iTC200), 50 mM sodium phosphate pH 7.4, 1 mM DTT; average of the runs, at least technical triplicates.
Experiment [5] has as its target T3, GGA1 VHS. The experiment can be described thus: ITC, GGA1 VHS. The arrangement: Ka: unit not given beside the values. In kind it is binding.

Residues, ends and D or L forms follow the SMILES beside them.

T2 sequence (O00629 60-487): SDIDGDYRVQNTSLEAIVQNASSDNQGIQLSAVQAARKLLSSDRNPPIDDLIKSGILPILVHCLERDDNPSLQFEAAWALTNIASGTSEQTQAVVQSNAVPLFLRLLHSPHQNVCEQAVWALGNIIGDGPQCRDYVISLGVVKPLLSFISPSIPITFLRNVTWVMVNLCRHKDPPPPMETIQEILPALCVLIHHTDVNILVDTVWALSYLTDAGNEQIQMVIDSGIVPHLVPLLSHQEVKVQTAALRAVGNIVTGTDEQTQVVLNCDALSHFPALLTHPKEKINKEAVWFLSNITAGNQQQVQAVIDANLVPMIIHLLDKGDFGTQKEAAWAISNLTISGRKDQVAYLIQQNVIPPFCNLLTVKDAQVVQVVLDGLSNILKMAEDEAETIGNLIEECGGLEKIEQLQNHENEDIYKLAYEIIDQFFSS
T1 sequence (O00629 60-487): as above

On to `CC(=O)NCC(=O)N[C@@H](C)C(=O)N[C@@H](CCC(=O)O)C(=O)N1CCC[C@H]1C(=O)N[C@@H](C)C(=O)N[C@@H](CC(C)C)C(=O)N[C@@H](CCCCN)C(=O)N[C@@H](CCCNC(=N)N)C(=O)N[C@@H](CO)C(=O)N[C@@H](Cc1c[nH]cn1)C(=O)N[C@@H](CO)C(=O)N[C@@H](CC(=O)O)C(=O)N[C@@H](CO)C(=O)N[C@@H](Cc1ccc(O)cc1)C(N)=O` [CDC25A114–125 E] (Ac-GAEPALKRSHSDSY-NH2), for which the figures for the Kd on KPNA4 ARM Major and at KPNA4 ARM minor were 0.75 ± 0.03 µM and 2.3 ± 0.3 µM, respectively. Also, the PES in the experiment with KPNA4 ARM is listed as 10 (0.000006).
As for `CC(=O)N[C@@H](CCC(=O)O)C(=O)N[C@H](C(=O)N[C@@H](Cc1ccc(O)cc1)C(=O)N[C@@H](Cc1ccc(O)cc1)C(=O)N[C@@H](CC(C)C)C(=O)N[C@@H](CO)C(=O)N[C@@H](CC(=O)O)C(=O)N[C@@H](CCC(=O)O)C(=O)N1CCC[C@H]1C(=O)N[C@@H](CC(C)C)C(=O)N[C@@H](CC(C)C)C(=O)NCC(=O)N1CCC[C@H]1C(=O)N1CCC[C@H]1C(=O)N[C@H](C(=O)NCC(N)=O)C(C)C)[C@@H](C)O` [GTSE1_145–160 E] (Ac-ETYYLSDEPLLGPPVG-NH2), the Kd on GGA1 VHS [1] was 199 ± 4 µM. Besides, the PES on GGA1 VHS [2] was 9 (0.00012).
Take `CC[C@H](C)[C@H](NC(=O)[C@H](CC(C)C)NC(=O)[C@H](CC(N)=O)NC(=O)CNC(=O)CNC(=O)[C@H](Cc1ccc(O)cc1)NC(C)=O)C(=O)N[C@H](C(=O)N[C@@H](Cc1ccccc1)C(=O)N[C@@H](CO)C(=O)N1CCC[C@H]1C(=O)N[C@@H](CC(C)C)C(=O)N[C@@H](CCC(N)=O)C(=O)N1CCC[C@H]1C(=O)NCC(=O)N[C@@H](CCC(=O)O)C(=O)N[C@@H](Cc1ccccc1)C(N)=O)[C@@H](C)O` [HURP832–846 wt] (Ac-YGGNLITFSPLQPGEF-NH2): the equilibrium dissociation constant (Kd) at Clathrin NTD [3] turned out to be 134 ± 16 µM; at Clathrin NTD [4] it was 266 µM.
With `CC(=O)N[C@@H](CC(=O)O)C(=O)N[C@@H](CC(C)C)C(=O)N[C@@H](CC(C)C)C(=O)N[C@@H](CCC(=O)O)C(=O)N[C@@H](CO)C(=O)N1CCC[C@H]1C(=O)N[C@@H](CC(=O)O)C(=O)N[C@H](C(=O)NCC(=O)N[C@@H](CC(C)C)C(=O)N[C@@H](CC(C)C)C(=O)N[C@@H](CCCCN)C(=O)N[C@@H](CC(C)C)C(=O)N[C@@H](C)C(=O)N[C@@H](CO)C(=O)N[C@@H](Cc1ccc(O)cc1)C(N)=O)C(C)C` [JUN59–73 E] (Ac-DLLESPDVGLLKLASY-NH2), at GGA1 VHS [1], the Kd was found to be 450 ± 50 µM. Further, the PES at GGA1 VHS [2] is recorded as 3.6 (0.023).
With `CC(=O)N[C@@H](CC(N)=O)C(=O)N[C@@H](Cc1ccc(O)cc1)C(=O)N[C@@H](C)C(=O)N1CCC[C@H]1C(=O)N1CCC[C@H]1C(=O)N[C@H](C(=O)N[C@@H](CCCCN)C(=O)N[C@@H](CCCNC(=N)N)C(=O)N[C@@H](CCC(=O)O)C(=O)N[C@@H](CCCNC(=N)N)C(=O)N[C@@H](CCC(=O)O)C(=O)N[C@@H](CO)C(=O)N[C@@H](CO)C(=O)N[C@@H](CC(C)C)C(=O)N[C@H](C(=O)N[C@@H](CCC(N)=O)C(N)=O)[C@@H](C)O)C(C)C` [RANBP3_114–129 E (p + 5)] (Ac-NYAPPVKRERESSLTQ-NH2), the IC50 stood at 7.1 ± 0.5 µM on KPNA4 ARM Major (Fig 3E, KPNA4 ARM major, technical triplicates, read-out: IC50 values of displacement curves, with SEM) and 290 ± 16 µM at KPNA4 ARM minor (Fig 3E, KPNA4 ARM minor, technical triplicates, read-out: IC50 values of displacement curves, with SEM). The equilibrium dissociation constant (Kd) on KPNA4 ARM Major was 0.8 ± 0.03 µM; at KPNA4 ARM minor, 61 ± 2 µM. For the same compound, in the experiment with KPNA4 ARM, the PES is reported as −7 (0.00012).
As to `CC[C@H](C)[C@H](NC(=O)[C@H](CC(=O)O)NC(=O)[C@H](CC(=O)O)NC(=O)[C@H](CO)NC(=O)[C@@H](NC(=O)[C@@H]1CCCN1C(=O)[C@H](CO)NC(=O)[C@H](CCCCN)NC(=O)[C@H](Cc1ccc(O)cc1)NC(C)=O)[C@@H](C)O)C(=O)N[C@@H](CCC(=O)O)C(=O)N[C@@H](CC(C)C)C(=O)N[C@@H](CC(C)C)C(=O)N[C@@H](Cc1c[nH]cn1)C(=O)N[C@@H](CCC(=O)O)C(=O)N[C@@H](CO)C(=O)N[C@@H](CCC(N)=O)C(=O)N[C@@H](CO)C(N)=O` [RNF11_6–21 E] (Ac-YKSPTSDDIELLHESQS-NH2), the Kd on GGA1 VHS [1] is 1000 µM; on GGA1 VHS [5] (ITC (iTC200), 50 mM sodium phosphate pH 7.4, 1 mM DTT, average of the runs, technical duplicates), 101 µM. Moreover, the Ka on GGA1 VHS [5] (ITC single run: date 200220, injection 1) amounted to 10600; at GGA1 VHS [5] (ITC single run: date 200220, injection 2), 9350. On GGA1 VHS [2], the PES is 4.9 (0.009).

(Values after PMC10333884, “Large‐scale phosphomimetic screening identifies phospho‐modulated motif‐based protein interactions” (Molecular Systems Biology, 2023).)
